The source made the active and inactive calls. How the calls were made is not given here.
Tested on: CCRIS mutagenicity, Ames/micronucleus/aberration tests
Assay: CCRIS mutagenicity studies
[1] = Test System: AMES SALMONELLA TYPHIMURIUM, Strain/Indicator: TA98, Metabolic Activation: NONE, Method: PREINCUBATION
[2] = Test System: AMES SALMONELLA TYPHIMURIUM, Strain/Indicator: TA100, Metabolic Activation: NONE, Method: PREINCUBATION
[3] = Test System: AMES SALMONELLA TYPHIMURIUM, Strain/Indicator: TA100, Metabolic Activation: NONE, Method: STANDARD PLATE
[4] = Test System: AMES SALMONELLA TYPHIMURIUM, Strain/Indicator: TA100, Metabolic Activation: RAT, LIVER, S-9, AROCLOR 1254, Method: STANDARD PLATE
[5] = Test System: AMES SALMONELLA TYPHIMURIUM, Strain/Indicator: TA1535, Metabolic Activation: NONE, Method: PREINCUBATION
[6] = Test System: AMES SALMONELLA TYPHIMURIUM, Strain/Indicator: TA1537, Metabolic Activation: NONE, Method: PREINCUBATION

Structure (SMILES): N.N.O=C([O-])C1(C(=O)[O-])CCC1.[Pt+4]
- mutagenic call [1]: inactive; negative
- mutagenic call (Test System: AMES SALMONELLA TYPHIMURIUM, Strain/Indicator: TA98, Metabolic Activation: NONE, Method: STANDARD PLATE): inactive; negative
- mutagenic call (Test System: AMES SALMONELLA TYPHIMURIUM, Strain/Indicator: TA98, Metabolic Activation: RAT, LIVER, S-9, AROCLOR 1254, Method: STANDARD PLATE): inactive; negative
- mutagenic call (Test System: AMES SALMONELLA TYPHIMURIUM, Strain/Indicator: TA98, Metabolic Activation: RAT, LIVER, S-9, PHENOBARBITAL AND 5,6-BENZOFLAVONE, Method: PREINCUBATION): inactive; negative
- mutagenic call [2]: inactive; negative
- mutagenic call [3]: inactive; negative
- mutagenic call [4]: inactive; negative
- mutagenic call (Test System: AMES SALMONELLA TYPHIMURIUM, Strain/Indicator: TA100, Metabolic Activation: RAT, LIVER, S-9, PHENOBARBITAL AND 5,6-BENZOFLAVONE, Method: PREINCUBATION): inactive; negative
- mutagenic call (Test System: AMES SALMONELLA TYPHIMURIUM, Strain/Indicator: TA102, Metabolic Activation: NONE, Method: STANDARD PLATE): active; positive
- mutagenic call (Test System: AMES SALMONELLA TYPHIMURIUM, Strain/Indicator: TA102, Metabolic Activation: RAT, LIVER, S-9, AROCLOR 1254, Method: STANDARD PLATE): active; positive
- mutagenic call [5]: inactive; negative
- mutagenic call (Test System: AMES SALMONELLA TYPHIMURIUM, Strain/Indicator: TA1535, Metabolic Activation: RAT, LIVER, S-9, PHENOBARBITAL AND 5,6-BENZOFLAVONE, Method: PREINCUBATION): inactive; negative
- mutagenic call [6]: inactive; negative
- mutagenic call (Test System: AMES SALMONELLA TYPHIMURIUM, Strain/Indicator: TA1537, Metabolic Activation: RAT, LIVER, S-9, PHENOBARBITAL AND 5,6-BENZOFLAVONE, Method: PREINCUBATION): inactive; negative
- mutagenic call (Test System: CHINESE HAMSTER, Strain/Indicator: V-79/6-THIOGUANINE (HGPRT), Metabolic Activation: NONE, Method: STANDARD PLATE): active; positive
- mutagenic call (Test System: E.COLI, Strain/Indicator: WP2 UVRA, Metabolic Activation: NONE, Method: PREINCUBATION): inactive; negative
- mutagenic call (Test System: E.COLI, Strain/Indicator: WP2 UVRA, Metabolic Activation: RAT, LIVER, S-9, PHENOBARBITAL AND 5,6-BENZOFLAVONE, Method: PREINCUBATION): inactive; negative

Structure (SMILES): C[C@H](CCC(=O)O)[C@H]1CC[C@H]2[C@@H]3[C@H](O)C[C@@H]4C[C@H](O)CC[C@]4(C)[C@H]3C[C@H](O)[C@]12C
- mutagenic call [1]: inactive; negative
- mutagenic call (Test System: AMES SALMONELLA TYPHIMURIUM, Strain/Indicator: TA98, Method: PREINCUBATION): inactive; negative
- mutagenic call [3]: inactive; negative
- mutagenic call [4]: inactive; negative

Structure (SMILES): C[Si](C)(C)CN=[N+]=[N-]
- mutagenic call [2]: inactive; negative
- mutagenic call (Test System: AMES SALMONELLA TYPHIMURIUM, Strain/Indicator: TA100, Metabolic Activation: RAT, LIVER, S-9, PCB, Method: PREINCUBATION): active; positive

Structure (SMILES): O=[N+]([O-])c1ccccc1SS/C(Cl)=C(\Cl)C(F)(F)F
- mutagenic call (Test System: AMES SALMONELLA TYPHIMURIUM, Strain/Indicator: TA100(DNP6), Metabolic Activation: NONE, Method: PREINCUBATION): active; positive
- mutagenic call (Test System: AMES SALMONELLA TYPHIMURIUM, Strain/Indicator: TA100(NR), Metabolic Activation: NONE, Method: PREINCUBATION): active; positive

Structure (SMILES): Cc1c(N)nc([C@H](CC(N)=O)NC[C@H](N)C(N)=O)nc1C(=O)N[C@H](C(=O)N[C@H](C)[C@@H](O)[C@H](C)C(=O)N[C@H](C(=O)NCCc1nc(-c2nc(C(=O)NCCCNCCCN=C(N)CC3CCC(Cl)CC3)cs2)cs1)[C@@H](C)O)[C@@H](O[C@@H]1O[C@@H](CO)[C@@H](O)[C@H](O)[C@@H]1O[C@H]1O[C@H](CO)[C@@H](O)[C@H](OC(N)=O)[C@@H]1O)c1cnc[nH]1 (some centres undefined)
- mutagenic call (Test System: AMES SALMONELLA TYPHIMURIUM, Strain/Indicator: TA94, Metabolic Activation: NONE, Method: PREINCUBATION): active; positive
- mutagenic call (Test System: AMES SALMONELLA TYPHIMURIUM, Strain/Indicator: TA102, Metabolic Activation: NONE, Method: PREINCUBATION): active; positive

Structure (SMILES): Nc1ccc2c(N)c3ccccc3nc2c1
- mutagenic call [5]: inactive; negative
- mutagenic call (Test System: AMES SALMONELLA TYPHIMURIUM, Strain/Indicator: TA1535, Metabolic Activation: RAT, LIVER, S-9, TETRACHLOROBIPHENYL, Method: PREINCUBATION): inactive; negative
- mutagenic call [6]: active; positive
- mutagenic call (Test System: AMES SALMONELLA TYPHIMURIUM, Strain/Indicator: TA1537, Metabolic Activation: RAT, LIVER, S-9, TETRACHLOROBIPHENYL, Method: PREINCUBATION): active; positive
- mutagenic call (Test System: AMES SALMONELLA TYPHIMURIUM, Strain/Indicator: TA1538, Metabolic Activation: NONE, Method: PREINCUBATION): active; positive
- mutagenic call (Test System: AMES SALMONELLA TYPHIMURIUM, Strain/Indicator: TA1538, Metabolic Activation: RAT, LIVER, S-9, TETRACHLOROBIPHENYL, Method: PREINCUBATION): active; positive
- mutagenic call (Test System: AMES SALMONELLA TYPHIMURIUM, Strain/Indicator: TA1977, Metabolic Activation: NONE, Method: PREINCUBATION): active; positive
- mutagenic call (Test System: AMES SALMONELLA TYPHIMURIUM, Strain/Indicator: TA1977, Metabolic Activation: RAT, LIVER, S-9, TETRACHLOROBIPHENYL, Method: PREINCUBATION): active; positive
- mutagenic call (Test System: AMES SALMONELLA TYPHIMURIUM, Strain/Indicator: TA1978, Metabolic Activation: NONE, Method: PREINCUBATION): inactive; negative
- mutagenic call (Test System: AMES SALMONELLA TYPHIMURIUM, Strain/Indicator: TA1978, Metabolic Activation: RAT, LIVER, S-9, TETRACHLOROBIPHENYL, Method: PREINCUBATION): inactive; negative

Structure (SMILES): CC(C)(C)OOC(C)(C)C
- mutagenic call (Test System: AMES SALMONELLA TYPHIMURIUM, Strain/Indicator: TA97, Metabolic Activation: HAMSTER, LIVER, S-9, AROCLOR 1254 (10%), Method: PREINCUBATION): inactive; negative
- mutagenic call (Test System: AMES SALMONELLA TYPHIMURIUM, Strain/Indicator: TA97, Metabolic Activation: HAMSTER, LIVER, S-9, AROCLOR 1254 (30%), Method: PREINCUBATION): inactive; negative
- mutagenic call (Test System: AMES SALMONELLA TYPHIMURIUM, Strain/Indicator: TA97, Metabolic Activation: NONE, Method: PREINCUBATION): inactive; negative
- mutagenic call (Test System: AMES SALMONELLA TYPHIMURIUM, Strain/Indicator: TA97, Metabolic Activation: RAT, LIVER, S-9, AROCLOR 1254 (10 OR 30%), Method: PREINCUBATION): inactive; negative
- mutagenic call (Test System: AMES SALMONELLA TYPHIMURIUM, Strain/Indicator: TA98, Metabolic Activation: HAMSTER, LIVER, S-9, AROCLOR 1254 (10%), Method: PREINCUBATION): inactive; negative
- mutagenic call (Test System: AMES SALMONELLA TYPHIMURIUM, Strain/Indicator: TA98, Metabolic Activation: HAMSTER, LIVER, S-9, AROCLOR 1254 (30%), Method: PREINCUBATION): inactive; negative
- mutagenic call [1]: inactive; negative
- mutagenic call (Test System: AMES SALMONELLA TYPHIMURIUM, Strain/Indicator: TA98, Metabolic Activation: RAT, LIVER, S-9, AROCLOR 1254 (10 OR 30%), Method: PREINCUBATION): inactive; negative
- mutagenic call (Test System: AMES SALMONELLA TYPHIMURIUM, Strain/Indicator: TA100, Metabolic Activation: HAMSTER, LIVER, S-9, AROCLOR 1254 (10%), Method: PREINCUBATION): inactive; negative
- mutagenic call (Test System: AMES SALMONELLA TYPHIMURIUM, Strain/Indicator: TA100, Metabolic Activation: HAMSTER, LIVER, S-9, AROCLOR 1254 (30%), Method: PREINCUBATION): inactive; negative
- mutagenic call [2]: inactive; negative
- mutagenic call (Test System: AMES SALMONELLA TYPHIMURIUM, Strain/Indicator: TA100, Metabolic Activation: RAT, LIVER, S-9, AROCLOR 1254 (10 OR 30%), Method: PREINCUBATION): inactive; negative
- mutagenic call (Test System: AMES SALMONELLA TYPHIMURIUM, Strain/Indicator: TA1535, Metabolic Activation: HAMSTER, LIVER, S-9, AROCLOR 1254 (10%), Method: PREINCUBATION): inactive; negative
- mutagenic call (Test System: AMES SALMONELLA TYPHIMURIUM, Strain/Indicator: TA1535, Metabolic Activation: HAMSTER, LIVER, S-9, AROCLOR 1254 (30%), Method: PREINCUBATION): inactive; negative
- mutagenic call [5]: inactive; negative
- mutagenic call (Test System: AMES SALMONELLA TYPHIMURIUM, Strain/Indicator: TA1535, Metabolic Activation: RAT, LIVER, S-9, AROCLOR 1254 (10 OR 30%), Method: PREINCUBATION): inactive; negative

Structure (SMILES): CC1(c2ccccc2)CO1 (centres undefined)
- mutagenic call [2]: active; positive

Reference: PubChem BioAssay AID1259407 (Chemical Carcinogenesis Research Information System (CCRIS), 2018)
